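Values below derive from 48-hour exposures of cells grown in 96-well plates, with endpoints linearly interpolated between the two concentrations bracketing the appropriate inhibition level. Here, GI50 denotes the concentration required for 50% inhibition of growth.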 Active and inactive are the calls of the source. Rule as the data show it: active = GI50 up to about 1.1 µM and inactive = higher. Where a SMILES comes first, the peptide text is derived from it. [ ]: non-standard residue; d: D form. The star is where a group is joined. ξ: configuration not given here. ξD = NC(CC(=O)O)C(=O)O; Boc = CC(C)(C)OC(=O)*; Aib = CC(C)(N)C(=O)O; OtBu = CC(C)(C)O*
Columns and labels:
Assay in all cases: inhibition of tumour cell growth, NCI panel, 48 h
MOLT-4 = tested on: MOLT-4
SNB-19 = tested on: SNB-19
786-0 = tested on: 786-0
SNB-75 = tested on: SNB-75
HCT-116 = tested on: HCT-116
DU-145 = tested on: DU-145
NCI/ADR-RES = tested on: NCI/ADR-RES
UACC-62 = tested on: UACC-62
HCC 2998 = tested on: HCC 2998
EKVX = tested on: EKVX
KM12 = tested on: KM12
CAKI-1 = tested on: CAKI-1
UO-31 = tested on: UO-31
HOP-62 = tested on: HOP-62
M14 = tested on: M14
SK-MEL-5 = tested on: SK-MEL-5
SF-539 = tested on: SF-539
HOP-92 = tested on: HOP-92
NCI-H522 = tested on: NCI-H522
NCI-H23 = tested on: NCI-H23

Measured: GI50

O=C(CP(c1ccccc1)c1ccccc1)c1cccc(C(=O)CP(c2ccccc2)c2ccccc2)c1
inactive: MOLT-4 6.75 µM | SNB-19 43.8 µM | 786-0 85.7 µM | SNB-75 55.6 µM | HCT-116 36.8 µM | DU-145 55.8 µM | NCI/ADR-RES > 100 µM | UACC-62 78.3 µM | HCC 2998 74.1 µM | EKVX 56.9 µM | KM12 26.1 µM | CAKI-1 86.3 µM | UO-31 12.5 µM | HOP-62 96.6 µM | M14 52.6 µM | SK-MEL-5 23.4 µM | SF-539 > 100 µM

c1nc(NCCc2c[nH]cn2)c2nc[nH]c2n1
inactive: MOLT-4 > 100 µM | SNB-19 > 100 µM | 786-0 > 100 µM | HOP-92 > 100 µM | NCI-H522 > 100 µM | SNB-75 64.3 µM | HCT-116 > 100 µM | DU-145 > 100 µM | NCI/ADR-RES > 100 µM | UACC-62 > 100 µM | EKVX 46.2 µM | NCI-H23 > 100 µM | KM12 > 100 µM | CAKI-1 > 100 µM | UO-31 > 100 µM | HOP-62 > 100 µM | M14 > 100 µM | SK-MEL-5 > 100 µM | SF-539 > 100 µM

S=c1sc2c(s1)SCc1cccc(n1)CSc1sc(=S)sc1SCc1cccc(n1)CS2
inactive: MOLT-4 > 100 µM | SNB-19 > 100 µM | 786-0 > 100 µM | NCI-H522 > 100 µM | SNB-75 > 100 µM | HCT-116 > 100 µM | DU-145 > 100 µM | NCI/ADR-RES > 100 µM | UACC-62 > 100 µM | HCC 2998 > 100 µM | EKVX > 100 µM | NCI-H23 > 100 µM | KM12 > 100 µM | CAKI-1 > 100 µM | UO-31 > 100 µM | HOP-62 > 100 µM | M14 > 100 µM | SK-MEL-5 > 100 µM | SF-539 > 100 µM

CCOC(=O)c1c(-c2ccccc2)nc2ccccc2c1O
inactive: MOLT-4 > 100 µM | SNB-19 > 100 µM | 786-0 > 100 µM | HOP-92 > 100 µM | SNB-75 > 100 µM | HCT-116 > 100 µM | DU-145 > 100 µM | NCI/ADR-RES > 100 µM | HCC 2998 > 100 µM | EKVX > 100 µM | NCI-H23 > 100 µM | KM12 > 100 µM | CAKI-1 > 100 µM | UO-31 > 100 µM | HOP-62 > 100 µM | M14 > 100 µM | SK-MEL-5 > 100 µM

CCCCNC(=O)OCCN=c1c2ccccc2ccc2ccccc12
inactive: MOLT-4 > 100 µM | SNB-19 > 100 µM | 786-0 > 100 µM | HOP-92 > 100 µM | SNB-75 > 100 µM | HCT-116 > 100 µM | DU-145 > 100 µM | NCI/ADR-RES > 100 µM | UACC-62 > 100 µM | HCC 2998 > 100 µM | EKVX > 100 µM | NCI-H23 > 100 µM | KM12 > 100 µM | CAKI-1 > 100 µM | UO-31 > 100 µM | HOP-62 > 100 µM | M14 > 100 µM | SK-MEL-5 > 100 µM | SF-539 > 100 µM

O=[N+]([O-])c1cccc(/N=N/c2c(O)ccc3ccccc23)c1
inactive: MOLT-4 85.3 µM | SNB-19 25.4 µM | 786-0 69.7 µM | HOP-92 48.1 µM | NCI-H522 45.1 µM | SNB-75 91 µM | HCT-116 > 100 µM | DU-145 > 100 µM | NCI/ADR-RES 70 µM | UACC-62 41.4 µM | EKVX 35.2 µM | NCI-H23 70.8 µM | KM12 42.4 µM | CAKI-1 > 100 µM | UO-31 > 100 µM | HOP-62 35 µM | M14 > 100 µM | SK-MEL-5 75.7 µM

COC(=O)CCC1=C(CC(=O)OC)C(C)(OC)N/C1=N/C(=O)OCc1ccccc1 (stereo unspecified)
inactive: MOLT-4 > 100 µM | SNB-19 > 100 µM | 786-0 > 100 µM | NCI-H522 > 100 µM | SNB-75 > 100 µM | HCT-116 > 100 µM | DU-145 > 100 µM | NCI/ADR-RES > 100 µM | UACC-62 > 100 µM | HCC 2998 > 100 µM | EKVX > 100 µM | NCI-H23 > 100 µM | KM12 > 100 µM | CAKI-1 > 100 µM | UO-31 > 100 µM | HOP-62 > 100 µM | M14 > 100 µM | SK-MEL-5 > 100 µM | SF-539 > 100 µM

COC(=O)c1nn2ccc3ccccc3c2c1C(=O)OC
inactive: MOLT-4 39.9 µM | SNB-19 > 100 µM | 786-0 75.2 µM | HOP-92 96.2 µM | NCI-H522 > 100 µM | SNB-75 72.8 µM | HCT-116 65.9 µM | DU-145 > 100 µM | NCI/ADR-RES 62.7 µM | UACC-62 36.6 µM | EKVX 2.37 µM | NCI-H23 > 100 µM | KM12 58.7 µM | CAKI-1 48.9 µM | UO-31 32.2 µM | HOP-62 50.8 µM | M14 33 µM | SK-MEL-5 37 µM | SF-539 > 100 µM

Oc1ccc[nH]c1=[Se]
inactive: MOLT-4 > 100 µM | SNB-19 85.9 µM | 786-0 16 µM | HOP-92 > 100 µM | NCI-H522 29.6 µM | SNB-75 92.3 µM | HCT-116 33.9 µM | DU-145 62.2 µM | NCI/ADR-RES 55.1 µM | UACC-62 > 100 µM | EKVX 25.8 µM | NCI-H23 46.2 µM | KM12 45.5 µM | CAKI-1 69.7 µM | UO-31 83.2 µM | HOP-62 29.1 µM | M14 47.6 µM | SK-MEL-5 39.4 µM | SF-539 54.6 µM

COC(=O)C(C)(C)NC(=O)C(C)(C)NC(=O)C(CC(=O)OC(C)(C)C)NC(=O)OC(C)(C)C (stereo unspecified) (Boc-[ξD](OtBu)-[Aib]-[Aib]-OMe)
inactive: MOLT-4 > 100 µM | SNB-19 > 100 µM | 786-0 > 100 µM | HOP-92 > 100 µM | NCI-H522 > 100 µM | SNB-75 > 100 µM | HCT-116 > 100 µM | DU-145 > 100 µM | NCI/ADR-RES > 100 µM | UACC-62 > 100 µM | EKVX > 100 µM | NCI-H23 > 100 µM | KM12 > 100 µM | CAKI-1 > 100 µM | UO-31 > 100 µM | HOP-62 > 100 µM | M14 > 100 µM | SK-MEL-5 > 100 µM | SF-539 > 100 µM

CSC1=N[C@H](c2ccccc2)CS1
inactive: MOLT-4 > 100 µM | SNB-19 > 100 µM | 786-0 > 100 µM | SNB-75 2.8 µM | HCT-116 > 100 µM | DU-145 > 100 µM | NCI/ADR-RES > 100 µM | UACC-62 > 100 µM | HCC 2998 > 100 µM | EKVX > 100 µM | NCI-H23 > 100 µM | KM12 > 100 µM | CAKI-1 > 100 µM | UO-31 > 100 µM | HOP-62 > 100 µM | M14 > 100 µM | SK-MEL-5 > 100 µM | SF-539 > 100 µM

Cc1c2ccccc2c(C2C3C(=O)N(c4cccc5ccccc45)C(=O)C3ON2Cc2ccc(CC(N)=O)cc2)c2ccccc12 (stereo unspecified)
inactive: MOLT-4 8.24 µM | SNB-19 19.6 µM | 786-0 24.4 µM | HOP-92 15.6 µM | NCI-H522 18.9 µM | SNB-75 9.55 µM | HCT-116 18.2 µM | DU-145 18.9 µM | NCI/ADR-RES 39.7 µM | UACC-62 14.4 µM | EKVX 14.2 µM | NCI-H23 25.1 µM | KM12 18.2 µM | CAKI-1 29.3 µM | UO-31 24.7 µM | HOP-62 23 µM | M14 15 µM | SK-MEL-5 10.5 µM | SF-539 12 µM

NC(=S)N/N=C1\C(=O)C=C(Nc2ccc(Cl)cc2Cl)c2ccccc21
inactive: MOLT-4 51.2 µM | SNB-19 25.5 µM | 786-0 7.85 µM | HOP-92 15.8 µM | SNB-75 11.5 µM | HCT-116 56.2 µM | DU-145 96.6 µM | NCI/ADR-RES 33.6 µM | UACC-62 2.64 µM | HCC 2998 > 100 µM | EKVX 22.1 µM | NCI-H23 23.2 µM | KM12 > 100 µM | CAKI-1 15.8 µM | UO-31 92 µM | HOP-62 4.34 µM | M14 44.5 µM | SK-MEL-5 27.4 µM | SF-539 7.38 µM

O=C(O)[C@@H]1C[C@@H](O)CN1
inactive: MOLT-4 > 100 µM | SNB-19 > 100 µM | 786-0 > 100 µM | HOP-92 > 100 µM | SNB-75 > 100 µM | HCT-116 > 100 µM | DU-145 > 100 µM | NCI/ADR-RES > 100 µM | UACC-62 > 100 µM | HCC 2998 > 100 µM | EKVX > 100 µM | NCI-H23 > 100 µM | KM12 > 100 µM | CAKI-1 > 100 µM | UO-31 > 100 µM | HOP-62 > 100 µM | M14 > 100 µM | SK-MEL-5 > 100 µM | SF-539 > 100 µM

O=C(O)CCCc1ccc2c(c1)CC1(C2)Cc2cc3c(cc2C1)CCCC3
inactive: MOLT-4 1.52 µM | 786-0 28.6 µM | HOP-92 23.7 µM | NCI-H522 19.2 µM | HCT-116 2.56 µM | NCI/ADR-RES 31.8 µM | UACC-62 > 100 µM | HCC 2998 19.8 µM | EKVX > 100 µM | NCI-H23 23.6 µM | KM12 19 µM | UO-31 19.4 µM | HOP-62 1.98 µM | M14 15.2 µM | SK-MEL-5 13.8 µM | SF-539 2.06 µM
